The target in assay [1] is T1, High affinity nerve growth factor receptor (Homo sapiens, UniProt P04629). As to the kind of experiment: Inhibition of baculovirus expressed human trkA.
Assay [2] in a line: Inhibition of [gamma-32P]-ATP binding to protein kinase C (1.5 ng) done for 10 min in pH 7.4 at 37 degree C with compound dissolved in DMSO using in In-Plate assay.
Assay [3] concerns the target T1, High affinity nerve growth factor receptor. In words: Inhibition of NGF-stimulated TrkA phosphorylation in NIH3T3 cells. The format is cell-based.
The nature of assay [4]: Relative binding to PKC and TrkA.

T1 sequence (P04629 whole entry): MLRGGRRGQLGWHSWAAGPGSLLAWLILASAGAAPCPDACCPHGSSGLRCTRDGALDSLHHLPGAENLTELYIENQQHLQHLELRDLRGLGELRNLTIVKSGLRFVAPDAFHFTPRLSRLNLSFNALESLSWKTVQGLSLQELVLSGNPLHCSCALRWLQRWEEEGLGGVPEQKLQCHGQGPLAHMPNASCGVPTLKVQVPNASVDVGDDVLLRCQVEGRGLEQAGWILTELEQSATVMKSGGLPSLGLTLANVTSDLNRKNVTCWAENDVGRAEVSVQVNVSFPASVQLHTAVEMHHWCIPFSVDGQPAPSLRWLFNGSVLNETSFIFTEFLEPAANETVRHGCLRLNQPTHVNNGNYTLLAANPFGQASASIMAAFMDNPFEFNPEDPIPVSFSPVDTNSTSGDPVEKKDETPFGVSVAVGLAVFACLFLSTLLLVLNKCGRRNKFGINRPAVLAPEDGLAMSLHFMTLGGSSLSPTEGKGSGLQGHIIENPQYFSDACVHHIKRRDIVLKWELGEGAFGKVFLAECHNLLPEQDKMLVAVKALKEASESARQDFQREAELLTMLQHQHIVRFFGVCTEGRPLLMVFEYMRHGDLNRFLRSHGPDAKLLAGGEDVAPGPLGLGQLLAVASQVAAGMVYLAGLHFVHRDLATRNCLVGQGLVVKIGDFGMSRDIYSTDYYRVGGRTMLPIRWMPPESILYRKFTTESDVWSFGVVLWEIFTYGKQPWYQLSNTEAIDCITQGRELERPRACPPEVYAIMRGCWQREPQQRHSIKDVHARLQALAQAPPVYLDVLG

With `C[C@]12O[C@H](C[C@@]1(O)C(N)=O)n1c3ccccc3c3c4c(c5c6ccccc6n2c5c31)CNC4=O`, the IC50 in assay [1] was determined as 29 nM; in assay [2] it was 663 nM.
For `C[C@]1(O)C[C@H]2O[C@]1(C)n1c3ccccc3c3c4c(c5c6ccccc6n2c5c31)C(=O)NC4`, the IC50 in assay [1] is 3 nM; in assay [3] it was under 10 nM; in assay [2] it was 850 nM.
On to `CC1(C)O[C@@H](n2c3ccccc3c3c4c(c5c6ccccc6[nH]c5c32)CNC4=O)C[C@@]1(O)CO`, for which the IC50 in assay [1] was determined as 4 nM; in assay [2], 79 nM.
For `C[C@@]1(O)C[C@H]2O[C@]1(C)n1c3ccccc3c3c4c(c5c6ccccc6n2c5c31)C(=O)NC4`, in that order: 20 nM and 310 nM.
`COC(=O)[C@]1(O)C[C@H]2O[C@]1(C)n1c3ccccc3c3c4c(c5c6ccccc6n2c5c31)C(=O)NC4`: the IC50 in assay [2] was found to be 114 nM.
With `COC(=O)[C@@]1(O)C[C@H]2O[C@]1(C)n1c3ccccc3c3c4c(c5c6ccccc6n2c5c31)C(=O)NC4` [K-252A], in assay [2], the IC50 turned out to be 250 nM.
As to `CC1(C)O[C@@H](n2c3ccccc3c3c4c(c5c6ccccc6[nH]c5c32)CNC4=O)C[C@]1(O)CO`, the IC50 in assay [1] is 4 nM; in assay [2], 218 nM.
For the molecule `CO[C@]1(CO)C[C@H]2O[C@]1(C)n1c3ccccc3c3c4c(c5c6ccccc6n2c5c31)C(=O)NC4`, the Ratio in assay [4] was found to be 39. The IC50 was 2.9 nM in assay [1] and 114 nM in assay [2].

The IC50 is the concentration that gives 50% inhibition.

The record behind these values is ChEMBL document CHEMBL1139527, “Synthesis, modeling, and in vitro activity of (3'S)-epi-K-252a analogues. Elucidating the stereochemical requirements of the 3'-sugar alcohol on trkA tyrosine kinase activity” (J Med Chem, 2005).
